Laboratory results published in ChEMBL document CHEMBL1201862, “PubChem BioAssay data set” (2004).
Active and inactive are the calls of the source.

Tests used:
HEK293 [1] = assay: NOD1 signaling inhibitors, primary screen, cell-based, luminescence, uHTS (AID 1578); type: functional; conditions: Homo sapiens
HEK293 [2] = assay: cells; type: functional, cell-based; conditions: Homo sapiens
HEK293 [3] = assay: cells; type: functional, cell-based; conditions: Homo sapiens; remark: listed apart in the source
HEK293 [4] = assay: NOD2 signaling inhibitors in MDP-stimulated cells, cell-based, uHTS, luminescence (AID 2001); type: functional; conditions: Homo sapiens
Tumor necrosis factor = Tumor necrosis factor (Homo sapiens, UniProt P01375); assay: TNFa-triggered NF-kB activation inhibitors, SAR follow-up, cell-based, revised (AID 2337); type: functional
[5] = target: T1, Nucleotide-binding oligomerization domain-containing protein 1 (Homo sapiens, UniProt Q9Y239); assay: NOD1 signaling inhibitors, SAR follow-up, revised (AID 2333); type: functional
T1 sequence (Q9Y239 whole entry): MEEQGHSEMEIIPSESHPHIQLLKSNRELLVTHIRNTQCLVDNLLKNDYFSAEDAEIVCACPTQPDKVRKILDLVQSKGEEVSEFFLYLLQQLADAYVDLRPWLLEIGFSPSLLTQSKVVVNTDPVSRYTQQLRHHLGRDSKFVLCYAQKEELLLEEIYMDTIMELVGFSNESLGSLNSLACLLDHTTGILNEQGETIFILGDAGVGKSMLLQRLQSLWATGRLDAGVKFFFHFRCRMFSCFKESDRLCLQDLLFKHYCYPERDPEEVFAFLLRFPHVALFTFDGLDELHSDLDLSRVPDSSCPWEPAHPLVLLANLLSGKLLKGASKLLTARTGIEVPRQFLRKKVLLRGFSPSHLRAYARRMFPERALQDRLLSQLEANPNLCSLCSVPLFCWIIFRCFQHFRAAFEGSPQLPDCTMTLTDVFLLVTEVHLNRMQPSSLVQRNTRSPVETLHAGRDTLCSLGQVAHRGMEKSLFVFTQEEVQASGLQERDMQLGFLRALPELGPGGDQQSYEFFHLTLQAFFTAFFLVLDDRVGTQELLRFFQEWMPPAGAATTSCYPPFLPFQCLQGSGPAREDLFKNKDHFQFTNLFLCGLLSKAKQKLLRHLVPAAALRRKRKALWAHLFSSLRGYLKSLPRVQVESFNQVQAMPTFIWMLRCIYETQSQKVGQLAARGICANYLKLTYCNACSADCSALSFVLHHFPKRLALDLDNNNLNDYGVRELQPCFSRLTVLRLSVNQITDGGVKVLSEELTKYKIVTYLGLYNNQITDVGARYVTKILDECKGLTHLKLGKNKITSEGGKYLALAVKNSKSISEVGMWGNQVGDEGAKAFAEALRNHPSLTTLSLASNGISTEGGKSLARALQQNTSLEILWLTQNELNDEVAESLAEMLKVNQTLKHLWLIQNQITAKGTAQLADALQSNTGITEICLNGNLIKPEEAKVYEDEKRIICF

INS1 = assay: beta cell apoptosis inhibitors, cytokine rescue, dose response, luminescence, retest (AID 449756); type: functional, cell-based; conditions: Rattus norvegicus;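 note: cell death triggered by IL-1 beta plus TNF-alpha plus IFN-gamma mixture; protective hits raise ATP signal compared with cytokine alone wells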
HEK293 [6] = assay: cells; conditions: Homo sapiens
Bcl-2-like protein 10 = target: T2, Bcl-2-like protein 10 (Homo sapiens, UniProt Q9HD36); assay: displacers of TR3 peptide from Bcl-B, primary screen, selectivity assay for Bfl-1 inhibitor project, biochemical, fluorescence polarization, FITC-TR3 peptide (AID 748);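 note: fluorescence polarization from a fluorescein-labelled TR3 peptide binding purified Bcl-B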
T2 sequence (Q9HD36 whole entry): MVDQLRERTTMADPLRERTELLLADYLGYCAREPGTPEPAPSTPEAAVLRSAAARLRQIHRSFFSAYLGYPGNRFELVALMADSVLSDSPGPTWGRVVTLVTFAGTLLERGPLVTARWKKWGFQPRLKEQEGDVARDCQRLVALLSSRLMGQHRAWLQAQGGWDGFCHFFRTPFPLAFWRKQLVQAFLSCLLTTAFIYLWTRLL

[7] = HEp-2 cell cytotoxicity, dose response, cytotoxicity control for RSV inhibitor project, HTS (AID 2410); type: functional; conditions: human respiratory syncytial virus
[8] = cytotoxicity in HPDE-C7 cells, cell-based, fluorescence, HTS (AID 430); type: functional; conditions: Homo sapiens
[9] = cytotoxicity in KRAS-transformed pancreatic duct cells, primary screen, cell-based, fluorescence, HTS (AID 431); type: functional; conditions: Homo sapiens;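 note: cell line used: HPDE-C7K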
[10] = target: T3, Mannose-6-phosphate isomerase (Homo sapiens, UniProt P34949); assay: human PMI inhibitors, high substrate, primary screen, biochemical, fluorescence intensity, high mannose 6-phosphate (AID 1220)
T3 sequence (P34949 whole entry): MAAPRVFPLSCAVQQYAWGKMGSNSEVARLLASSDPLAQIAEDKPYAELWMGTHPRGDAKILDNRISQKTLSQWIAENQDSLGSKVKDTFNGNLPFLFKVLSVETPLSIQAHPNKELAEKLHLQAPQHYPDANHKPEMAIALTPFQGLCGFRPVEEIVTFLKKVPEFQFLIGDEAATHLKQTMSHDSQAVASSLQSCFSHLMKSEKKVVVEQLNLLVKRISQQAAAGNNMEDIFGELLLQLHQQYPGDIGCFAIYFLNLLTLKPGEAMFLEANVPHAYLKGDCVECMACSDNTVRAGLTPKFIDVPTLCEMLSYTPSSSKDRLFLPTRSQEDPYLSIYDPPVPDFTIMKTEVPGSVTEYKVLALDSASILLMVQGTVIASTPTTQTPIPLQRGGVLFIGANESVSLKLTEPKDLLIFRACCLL

[11] = M. tuberculosis H37Rv growth inhibitors, H37Rv strain (AID 1626); type: functional
[12] = THP-1 cell cytotoxicity, dose response, cytotoxicity control for non-replicating M. tuberculosis project (AID 489025); type: functional
cells = type: functional
[13] = inhibitors of firefly luciferase expression or activity, dose response, H4 neuroglioma cells, luminescence (AID 1990); type: functional, cell-based
[14] = Luminescence Cell-Based Dose Response HTS to Identify Inhibitors of 5'UTR Stem-Loop Driven Prion Protein mRNA Translation in H4 Neuroglioblastoma Cells. [Related pubchem assays: 1827 (Project Summary), 1813 (Primary HTS)]; type: functional
[15] = inhibitors of SNCA 5'UTR-driven reporter translation, confirmation, H4 neuroglioma cells, luminescence (AID 1988); type: functional, cell-based
[16] = cytotoxicity in HEK-293T cells, dose response, cytotoxicity control for BCR NF-kB inhibitor project, luminescence, B-cell screen hits (AID 489021); type: functional, cell-based;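 note: HEK-293T cells carrying an NF-kB luciferase reporter; cells exposed to compound for about 14 hours before viability readout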
[17] = inhibitors of intracellular T. cruzi replication, confirmation, NIH3T3 host cells, beta-gal luminescence (AID 2044); type: functional, cell-based;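 note: intracellular parasites grown in NIH/3T3 mouse fibroblasts as host cells; luminescent beta-galactosidase reporter signal from transgenic T. cruzi replicating inside host cells; inhibitors lower the luminescence signal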
[18] = cytotoxicity toward NIH3T3 fibroblasts, dose response, counter-screen, cell-based, ATP luminescence, mouse fibroblasts (AID 2010); type: functional;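 note: cells exposed to compound for about 90 hours before reading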

Chain of Tumor necrosis factor (P01375 whole entry, the tested form may be a part): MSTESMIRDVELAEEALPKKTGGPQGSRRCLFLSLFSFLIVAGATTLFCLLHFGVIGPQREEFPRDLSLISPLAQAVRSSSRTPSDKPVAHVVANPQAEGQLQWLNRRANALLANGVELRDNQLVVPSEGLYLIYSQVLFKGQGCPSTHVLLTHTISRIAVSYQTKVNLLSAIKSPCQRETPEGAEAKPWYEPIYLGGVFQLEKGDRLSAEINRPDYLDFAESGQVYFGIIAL

COc1ccccc1CNc1ncnc2sccc12
EC50 (HEK293 [1]): 1.69 µM (active)
IC50 (HEK293 [2]): 4.4 µM (active)
IC50 (HEK293 [3]): 14.8 µM (active)
IC50 (HEK293 [4]): 8.12 µM (active)
IC50 (Tumor necrosis factor): 4.19 µM (active)
IC50 [5]: 3.08 µM (active)
AC50 (INS1): 4.26 µM (active)
IC50 (HEK293 [6]): > 20 µM (inactive)

COC(=O)c1[nH]c2cccc(OC)c2c1NC(=O)CCN1CCC(C(N)=O)CC1
IC50 (Bcl-2-like protein 10): > 100 µM (inactive)

COc1cc2c(C#N)c(N3CCc4ccccc4C3)nc(N)c2c(N)n1
CC50 [7]: 15.2 µM (active)
EC50 [8]: 7.82 µM (active)
EC50 [9]: 8.37 µM (active)
IC50 [10]: > 50 µM (not active)

COc1ccc(NC(=O)c2ccc(COCC(F)(F)C(F)F)cc2)cc1
IC50 [11]: > 100 µM (active)
CC50 [12]: > 40 µM (active)
IC50 (cells): 47.8 µM (active)

CCOC(=O)c1cc2c(=O)n3ccccc3nc2n(CC(C)C)/c1=N/C(=O)c1c(-c2c(F)cccc2Cl)noc1C
EC50 [13]: 14.1 µM (active)
EC50 [14]: 15.8 µM (active)
EC50 [15]: 42.8 µM (active)
IC50 [16]: > 80 µM (inactive)

C/C(=C\C(=O)c1cccnc1)Nc1ccc(C(=O)O)cc1
IC50 [10]: > 50 µM (not active)

N=c1c2c(n(Cc3cccc(Cl)c3)c3c1CCC3)CCCC2
EC50 [17]: 0.167 µM (active)
EC50 [18]: > 60 µM (inconclusive)
IC50 [16]: > 80 µM (inactive)
AC50 (INS1): 6.82 µM (active)
